The results in this text go back to patent US10772886B2, “CXCR-2 inhibitors for treating crystal arthropathy disorders” (ARDEA BIOSCIENCES, INC., priority 2016, dated 2020).

Common to all, as to type: in vivo
The subject of test [1] is rat air pouch model of crystal-induced arthropathy (MSU). Kind of test: Rat air pouch therapeutic model, Example 10 (Compounds 3 and 4 in combination with colchicine). As for the experimental part:
Sodium hydroxide (40 g, Fisher Scientific) was dissolved in de-ionized water (100 mL, dH2O) to provide a 10N solution. Uric acid (16 g, Sigma) was added to de-ionized water (3400 mL) containing sodium hydroxide solution (11.8 mL, 10N) and heated to 60° C. with constant stirring. […] The resulting clear solution was cooled to 4-8° C., resulting in the formation of crystals, which were isolated by filtration, washed three times with de-ionized wa[…]) and dried at 37° C. The dried mono sodium urate crystals were sifted into an air-tight container for storage. […] Methylcellulose (0.4 g, Sigma) was dissolved in de-ionized water (100 mL) to provide a 0.4% solution used as vehicle. […] Test compounds were suspended in vehicle to provide the desired concentrations, and diluted accordingly. […] The animals were in apparent good health with no clinical signs of disease or distress. The rats were placed in quarantine with daily inspections, ear notched for identification purposes and shaved at the nape of the neck. The rats were anesthetized (isoflurane), and the nape of the neck was cleansed with 70% isopropanol (Butler Animal Health Supply) followed by povidone-iodine solution (Ricca Chemical Co.). Sterile air (30 mL, 0.2 μm, Millipore) was injected subcutaneously using a 23 G×11⁄2 inch needle fixed to a 30 mL syringe. The rats were returned to routine housing with no adverse reactions observed. The rats were anesthetized (isoflurane), and the nape of the neck was cleansed with 70% isopropanol (Butler Animal Health Supply) followed by povidone-iodine solution (Ricca Chemical Co.). Sterile air (15 mL, 0.11 μm, Millipore) was injected subcutaneously using a 23 G×11⁄2 inch needle fixed to a 20 mL syringe. The rats were returned to routine housing with no adverse reactions observed. The rats were weighed and sorted into treatment groups based on average body weight. As appropriate, the rats were dosed orally with test compound or vehicle (saline alone). […] Control group was injected with 15 mL sterile saline (vehicle). The injection sites were closed (collodion, Macron) and the rats returned to their cages with no adverse effects observed. Four hours after MSU/saline injection, the rats were anesthetized and heparinized saline (5 mL, 10 U/mL) was injected into the air pouch. […] An aliquot of the exudate was transferred to green Eppendorf tubes for total white blood cell (WBC) measurement. After allowing the MSU crystals to settle out for ten minutes, an aliquot of the exudate was transferred to heparinized microtainer tubes (Becton Dickinson) for differential white blood cell counts. The remainder of the exudate was centrifuged and an aliquot of the supernatants was dispensed to labeled clear Eppendorf tubes and stored at -80° C. The rats were exsanguinated into pre-chilled serum separator tubes, processed to serum, and 0.5 mL aliquot was stored at -80° C. in labeled Eppendorf tubes. […] 140 rats were used, divided into 14 groups of 10 animals, as follows: [table]

For test [2] the test system is unchanged. Kind of test: Rat air pouch model, Example 7 (Compounds 3 and 4 in combination with colchicine). As to the method:
(§1) Sodium hydroxide (40 g, Fisher Scientific) was dissolved in de-ionized water (100 mL, dH2O) to provide a 10N solution. Uric acid (16 g, Sigma) was added to de-ionized water (3400 mL) containing sodium hydroxide solution (11.8 mL, 10N) and heated to 60° C. with constant stirring. […] The resulting clear solution was cooled to 4-8° C., resulting in the formation of crystals, which were isolated by filtration, washed three times with de-ionized wa[…]) and dried at 37° C. The dried mono sodium urate crystals were sifted into an air-tight container for storage. […] Methylcellulose (0.4 g, Sigma) was dissolved in de-ionized water (100 mL) to provide a 0.4% solution used as vehicle. […] Test compounds were suspended in vehicle to provide the desired concentrations, and diluted accordingly. […] Male Sprague-Dawley rats (Charles River Laboratories, 160-180 g) were received, individually examined and housed in cages of five rats each. The animals were in apparent good health with no clinical signs of disease or distress. The rats were placed in quarantine with daily inspections, ear notched for identification purposes and shaved at the nape of the neck. The rats were anesthetized (isoflurane), and the nape of the neck was cleansed with 70% isopropanol (Butler Animal Health Supply) followed by povidone-iodine solution (Ricca Chemical Co.). Sterile air (30 mL, 0.2 μm, Millipore) was injected subcutaneously using a 23 G×11⁄2 inch needle fixed to a 30 mL syringe. The rats were returned to routine housing with no adverse reactions observed. The rats were anesthetized (isoflurane), and the nape of the neck was cleansed with 70% isopropanol (Butler Animal Health Supply) followed by povidone-iodine solution (Ricca Chemical Co.). Sterile air (15 mL, 0.11 μm, Millipore) was injected subcutaneously using a 23 G×11⁄2 inch needle fixed to a 20 mL syringe. The rats were returned to routine housing with no adverse reactions observed. The rats were weighed and sorted into treatment groups based on average body weight. As appropriate, the rats were dosed orally with test compound or vehicle (saline alone). […] Thirty minutes after SC injection or two hours after PO dosing, MSU (15 mL) was injected into the air pouch using an 18 G×2 inch needle fitted to a 20 mL syringe. Control group was injected with 15 mL sterile saline (vehicle). The injection sites were closed (collodion, Macron) and the rats returned to their cages with no adverse effects observed. Four hours after MSU/saline injection, the rats were anesthetized and heparinized saline (5 mL, 10 U/mL) was injected into the air pouch. […] An aliquot of the exudate was transferred to green Eppendorf tubes for total white blood cell (WBC) measurement. After allowing the MSU crystals to settle out for ten minutes, an aliquot of the exudate was transferred to heparinized microtainer tubes (Becton Dickinson) for differential white blood cell counts. The remainder of the exudate was centrifuged and an aliquot of the supernatants was dispensed to labeled clear Eppendorf tubes and stored at -80° C. The rats were exsanguinated into pre-chilled serum separator tubes, processed to serum, and 0.5 mL aliquot was stored at -80° C. in labeled Eppendorf tubes. […] [table]

Test [3] shares this test system. Kind of test: Rat air pouch model, Example 6 (Compounds 2, 3 and 4). As for the experimental part: as §1
Setting [4] is: 10 μmol/kg PO + Colchicine 0.3 mg/kg SC, Groups 9, 14.
The mark [5] stands for this setting: 3.0 umol/kg PO + Colchicine 0.1 mpk SC, Group 10.
The mark [6] stands for this setting: 1 umol/kg PO + Colchicine 0.1 mpk SC, Group 9.

Consider `COc1cc2c(c(OC)c1OC)-c1ccc(OC)c(=O)cc1[C@@H](NC(C)=O)CC2` [Colchicine, COLCHICINE, reference compound], for which the “Avg Exudate Vol” value in test [1] (0.3 mpk SC, Group 3) amounted to 11.7 mL; in test [1] (0.5 mpk SC, Group 4) it was 8.9 mL; in test [1] (1.0 mpk SC, Group 5), 7.3 mL; in test [2] (0.1 mpk SC, Group 3), 12 mL; in test [2] (1.0 mpk SC, Group 4), 6 mL; in test [3] (1 mpk SC, Group 4), 5.8 mL. Moreover, the “Avg Tot WBC” value in test [1] (0.3 mpk SC, Group 3) is recorded as 180 ×10^6; in test [1] (0.5 mpk SC, Group 4), 35 ×10^6; in test [1] (1.0 mpk SC, Group 5), 9.8 ×10^6. For the same compound, the Neutrophils in test [1] (0.3 mpk SC, Group 3) was 71.5 ×10^6; in test [1] (0.5 mpk SC, Group 4), 70.7 ×10^6; in test [1] (1.0 mpk SC, Group 5), 25.9 ×10^6; in test [2] (0.1 mpk SC, Group 3), 205 ×10^6; in test [2] (1.0 mpk SC, Group 4), 10.8 ×10^6; in test [3] (1 mpk SC, Group 4) it was 9.9 ×10^6. Besides, the “Avg Total WBC” value in test [2] (0.1 mpk SC, Group 3) was 240 ×10^6; in test [2] (1.0 mpk SC, Group 4), 22 ×10^6; in test [3] (1 mpk SC, Group 4), 17 ×10^6.
With `CC[C@@H](Nc1c(Nc2cccc(C(=O)N(C)C)c2O)c(=O)c1=O)c1ccc(C)o1` [Compound 2, (R)-2-hydroxy-N,N-dimethyl-3-((2-((1-(5-methylfuran-2-yl)propyl)amino)-3,4-dioxocyclobut-1-en-1-yl)amino)benzamide], in test [3] (3 mpk PO, Group 3), the “Avg Exudate Vol” value was determined as 8.4 mL, the “Avg Total WBC” value was 22 ×10^6 and the Neutrophils is 11.8 ×10^6.
Take `C[C@@H](Oc1cc(NS(=O)(=O)N2CCC2)nc(SCc2cccc(F)c2F)n1)[C@@H](O)CO` [Compound 3, N-(2-((2,3-difluorobenzyl)thio)-6-(((2R,3S)-3,4-dihydroxybutan-2-yl)oxy)pyrimidin-4-yl)azetidine-1-sulfonamide]: the “Avg Exudate Vol” value was 11.5 mL in test [1] (3 μmol/kg PO, Group 10); 9.5 mL in test [1] (setting [4]); 10.0 mL in test [1] (10 μmol/kg PO, Groups 6, 11); 8.8 mL in test [1] (30 μmol/kg PO, Groups 7, 12); 6.9 mL in test [1] (100 μmol/kg PO, Groups 8, 13); 7.8 mL in test [2] (setting [5]). In addition, the “Avg Exudate Vol” value was found to be 11.1 mL in test [2] (3 umol/kg PO, Group 5); 7.4 mL in test [2] (30 umol/kg PO, Groups 6, 8); 10.7 mL in test [3] (0.3 umol/kg PO, Group 5); 10 mL in test [3] (3.0 umol/kg PO, Group 6); 7 mL in test [3] (30 umol/kg PO, Groups 7, 9). Also, the “Avg Tot WBC” value is recorded as 120 ×10^6 in test [1] (3 μmol/kg PO, Group 10); 68 ×10^6 in test [1] (setting [4]); 84 ×10^6 in test [1] (10 μmol/kg PO, Groups 6, 11); 59 ×10^6 in test [1] (30 μmol/kg PO, Groups 7, 12); 40 ×10^6 in test [1] (100 μmol/kg PO, Groups 8, 13). In addition, the Neutrophils in test [1] (3 μmol/kg PO, Group 10) was 71.1 ×10^6; in test [1] (setting [4]), 72.6 ×10^6; in test [1] (10 μmol/kg PO, Groups 6, 11), 69.2 ×10^6; in test [1] (30 μmol/kg PO, Groups 7, 12), 30.7 ×10^6; in test [1] (100 μmol/kg PO, Groups 8, 13), 35.1 ×10^6; in test [2] (setting [5]), 159 ×10^6. Besides, the Neutrophils is 133 ×10^6 in test [2] (3 umol/kg PO, Group 5); 65.2 ×10^6 in test [2] (30 umol/kg PO, Groups 6, 8); 155 ×10^6 in test [3] (0.3 umol/kg PO, Group 5); 121 ×10^6 in test [3] (3.0 umol/kg PO, Group 6); 44.6 ×10^6 in test [3] (30 umol/kg PO, Groups 7, 9). In addition, the “Avg Total WBC” value was 120 ×10^6 in test [2] (setting [5]); 180 ×10^6 in test [2] (3 umol/kg PO, Group 5); 110 ×10^6 in test [2] (30 umol/kg PO, Groups 6, 8); 180 ×10^6 in test [3] (0.3 umol/kg PO, Group 5); 190 ×10^6 in test [3] (3.0 umol/kg PO, Group 6); 96 ×10^6 in test [3] (30 umol/kg PO, Groups 7, 9).
`CC1CN(S(=O)(=O)Nc2cc(O[C@H](C)[C@@H](O)CO)nc(SCc3ccc(F)cc3)n2)C1` [Compound 4, N-(6-(((2R,3S)-3,4-dihydroxybutan-2-yl)oxy)-2-((4-fluorobenzyl)thio)pyrimidin-4-yl)-3-methylazetidine-1-sulfonamide]: the “Avg Exudate Vol” value in test [1] (setting [4]) was found to be 7.6 mL; in test [1] (10 μmol/kg PO, Groups 6, 11), 11.5 mL; in test [1] (30 μmol/kg PO, Groups 7, 12), 8.2 mL; in test [1] (100 μmol/kg PO, Groups 8, 13), 7.0 mL; in test [2] (setting [6]) it was 10.3 mL; in test [2] (1 umol/kg PO, Group 7) it was 11.8 mL. Also, the “Avg Exudate Vol” value in test [2] (30 umol/kg PO, Groups 6, 8) turned out to be 8.1 mL; in test [3] (1.0 umol/kg PO, Group 8), 10 mL; in test [3] (30 umol/kg PO, Groups 7, 9) it was 7 mL; in test [3] (100 umol/kg PO, Group 10) it was 6.5 mL. The “Avg Tot WBC” value was 46 ×10^6 in test [1] (setting [4]); 130 ×10^6 in test [1] (10 μmol/kg PO, Groups 6, 11); 25 ×10^6 in test [1] (30 μmol/kg PO, Groups 7, 12); 18 ×10^6 in test [1] (100 μmol/kg PO, Groups 8, 13). In addition, the Neutrophils in test [1] (setting [4]) is 61.5 ×10^6; in test [1] (10 μmol/kg PO, Groups 6, 11), 68.4 ×10^6; in test [1] (30 μmol/kg PO, Groups 7, 12) it was 60.4 ×10^6; in test [1] (100 μmol/kg PO, Groups 8, 13) it was 26.2 ×10^6; in test [2] (setting [6]), 179 ×10^6; in test [2] (1 umol/kg PO, Group 7), 121 ×10^6. Moreover, the Neutrophils in test [2] (30 umol/kg PO, Groups 6, 8) is 69.6 ×10^6; in test [3] (1.0 umol/kg PO, Group 8), 165 ×10^6; in test [3] (30 umol/kg PO, Groups 7, 9) it was 95.4 ×10^6; in test [3] (100 umol/kg PO, Group 10), 48.6 ×10^6. In addition, the “Avg Total WBC” value is given as 210 ×10^6 in test [2] (setting [6]); 160 ×10^6 in test [2] (1 umol/kg PO, Group 7); 100 ×10^6 in test [2] (30 umol/kg PO, Groups 6, 8); 270 ×10^6 in test [3] (1.0 umol/kg PO, Group 8); 140 ×10^6 in test [3] (30 umol/kg PO, Groups 7, 9); 76 ×10^6 in test [3] (100 umol/kg PO, Group 10).
